Assay results reported in patent US11345694B2, “Antibacterial compounds” (DISCUVA LTD., priority 2017, dated 2022).
In brackets after ≈: the same amount, converted by molar mass.

Key:
[1] = test system: E. coli NCTC 13441 (UPEC); assay: MIC broth microdilution; format: cell-based, Escherichia coli; details: for MIC: Escherichia coli, NCTC13441
Outline: (§1)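 Broth microdilution following CLSI M07-A10, two-fold serial compound dilutions spanning 0.39-200 μM final, DMSO at most 2% final, in cation-adjusted Müller-Hinton broth at 37° C., ambient air. MIC taken as lowest concentration inhibiting growth after 20-24 h incubation.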

[2] = test system: Acinetobacter baumannii ATCC 17978 (AB); assay: MIC broth microdilution; format: cell-based; details: for MIC: ATCC17978
Outline: as §1

[3] = test system: Enterobacter cloacae DSM 30054 (Ed); assay: MIC broth microdilution; format: cell-based; details: for MIC: DSM30054
Outline: (§2)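 CLSI broth microdilution with two-fold compound series, 0.39-200 μM final, at most 2% DMSO. Strains grown in cation-adjusted Müller-Hinton broth at 37 °C, ambient air. MIC taken as lowest concentration inhibiting growth after 20-24 h.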

[4] = test system: Escherichia coli K12 (EC); assay: MIC broth microdilution; format: cell-based
Outline: as §1

[5] = test system: Klebsiella pneumoniae ATCC 10031 (KP2); assay: MIC broth microdilution; format: cell-based; details: ATCC10031
Outline: as §2

[6] = test system: Pseudomonas aeruginosa ATCC 33359 (PA); assay: MIC broth microdilution; format: cell-based; details: for MIC: ATCC33359
Outline: as §1

[7] = test system: Salmonella typhimurium XNAA5 (St); assay: MIC broth microdilution; format: cell-based; details: for MIC: Salmonella enterica
Outline: as §1

[8] = test system: Serratia marcescens SL1344 (Sm); assay: MIC broth microdilution; format: cell-based
Outline: as §1

[9] = test system: Staphylococcus aureus ATCC 35556 (SA); assay: MIC broth microdilution; format: cell-based; details: for MIC: ATCC35556
Outline: as §1

[10] = test system: K. pneumoniae NCTC 13438 (KP1); assay: MIC broth microdilution; format: cell-based, Klebsiella pneumoniae; details: Klebsiella pneumoniae, NCTC13438
Outline: as §2

[11] = test system: human hepatocarcinoma cell line ATCC HB-8065 (HepG2); assay: Human cell viability (CellTiter-Glo); format: cell-based; details: Homo sapiens; HepG2 cells, 24 h incubation, CellTiter-Glo luminescence, 0.2-100 μM; read-out: IC50 values against the HepG2 cell line
Outline: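 HepG2 cells were seeded at 20,000 cells/well in MEM with 10% FBS and, after 24 h, exposed for 24 h at 37° C. to two-fold dilutions (final 0.2-100 μM) in MEM with 1% FBS and 1% DMSO. Viability was read by CellTiter-Glo luminescence, with IC50 from a 4-parameter logistic fit.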

[12] = test system: Klebsiella pneumoniae ATCC 51504 (KP4); assay: MIC broth microdilution; format: cell-based; details: ATCC51504
Outline: as §1

[13] = test system: K. pneumoniae ATCC 700603 (KP3); assay: MIC broth microdilution; format: cell-based, Klebsiella pneumoniae; details: Klebsiella pneumoniae, ATCC700603
Outline: as §2

[14] = test system: K. pneumoniae H151440671 (KP10); assay: MIC broth microdilution; format: cell-based, Klebsiella pneumoniae; details: Klebsiella pneumoniae
Outline: as §2

[15] = test system: K. pneumoniae H154020667 (KP6); assay: MIC broth microdilution; format: cell-based, Klebsiella pneumoniae; details: Klebsiella pneumoniae
Outline: as §2

[16] = test system: K. pneumoniae H154300688 (KP9); assay: MIC broth microdilution; format: cell-based, Klebsiella pneumoniae; details: Klebsiella pneumoniae
Outline: as §2

[17] = test system: K. pneumoniae H154600588 (KP8); assay: MIC broth microdilution; format: cell-based, Klebsiella pneumoniae; details: Klebsiella pneumoniae
Outline: as §2

[18] = test system: K. pneumoniae H154640784 (KP7); assay: MIC broth microdilution; format: cell-based, Klebsiella pneumoniae; details: Klebsiella pneumoniae
Outline: as §2

[19] = test system: K. pneumoniae H154680676 (KP5); assay: MIC broth microdilution; format: cell-based, Klebsiella pneumoniae; details: Klebsiella pneumoniae
Outline: as §2

SMILES	MIC [1] [µM]	MIC [2] [µM]	MIC [4] [µM]	MIC [5] [µM]	MIC [6] [µM]	MIC [9] [µM]	MIC [10] [µM]	IC50 [11] [µM]	MIC [12] [µM]	MIC [13] [µM]	MIC [14] [µM]	MIC [15] [µM]	MIC [16] [µM]	MIC [17] [µM]	MIC [18] [µM]	MIC [19] [µM]	other results
Cc1cc(-c2nc(N)[nH]c2-c2ccc(Cl)cc2)ccn1 [Example 4, 5-(4-Chlorophenyl)-4-(2-methylpyridin-4-yl)-1H-imidazol-2-amine]	1 to 10 (≈ 0.285 to 2.85 µg/mL)	> 100	≤ 1	≤ 1	> 100	> 100	10 to 100 (≈ 2.85 to 28.5 µg/mL)	> 100	–	–	–	–	–	–	–	–	MIC [3]: 1 to 10 µM (≈ 0.285 to 2.85 µg/mL); MIC [7]: 1 to 10 µM (≈ 0.285 to 2.85 µg/mL); MIC [8]: 10 to 100 µM (≈ 2.85 to 28.5 µg/mL)
COc1ccc(-c2[nH]c(N)nc2-c2ccnc(C)c2)cc1 [Example 21, 5-(4-Methoxyphenyl)-4-(2-methylpyridin-4-yl)-1H-imidazol-2-amine]	1 to 10 (≈ 0.28 to 2.8 µg/mL)	> 100	1 to 10 (≈ 0.28 to 2.8 µg/mL)	≤ 1	> 100	> 100	10 to 100 (≈ 2.8 to 28 µg/mL)	> 100	–	–	–	–	–	–	–	–	MIC [3]: > 100 µM; MIC [7]: > 100 µM; MIC [8]: > 100 µM
Cc1cc(-c2[nH]c(N)nc2-c2cc(F)c3c(c2)OCCO3)ccn1 [Example 56, 4-(8-fluoro-2,3-dihydrobenzo[b][1,4]dioxin-6-yl)-5-(2-methylpyridin-4-yl)-1H-imidazol-2-amine]	1 to 10 (≈ 0.326 to 3.26 µg/mL)	> 100	1 to 10 (≈ 0.326 to 3.26 µg/mL)	≤ 1	> 100	> 100	1 to 10 (≈ 0.326 to 3.26 µg/mL)	> 100	≤ 1	1 to 10 (≈ 0.326 to 3.26 µg/mL)	≤ 1	≤ 1	1 to 10 (≈ 0.326 to 3.26 µg/mL)	1 to 10 (≈ 0.326 to 3.26 µg/mL)	1 to 10 (≈ 0.326 to 3.26 µg/mL)	≤ 1	–
CCN1CCOc2ccc(-c3nc(N)[nH]c3-c3ccnc(C)c3)cc21 [Example 57, 4-(4-Ethyl-3,4-dihydro-2H-benzo[b][1,4]oxazin-6-yl)-5-(2-methylpyridin-4-yl)-1H-imidazol-2-amine]	1 to 10 (≈ 0.335 to 3.35 µg/mL)	> 100	≤ 1	≤ 1	> 100	> 100	1 to 10 (≈ 0.335 to 3.35 µg/mL)	> 100	≤ 1	1 to 10 (≈ 0.335 to 3.35 µg/mL)	≤ 1	≤ 1	1 to 10 (≈ 0.335 to 3.35 µg/mL)	1 to 10 (≈ 0.335 to 3.35 µg/mL)	1 to 10 (≈ 0.335 to 3.35 µg/mL)	≤ 1	–
Cc1cc(-c2[nH]c(N)nc2-c2ccc3c(c2)NCCC3)ccn1 [Example 58, 5-(2-Methylpyridin-4-yl)-4-(1,2,3,4-tetrahydroquinolin-7-yl)-1H-imidazol-2-amine]	≤ 1	> 100	1 to 10 (≈ 0.305 to 3.05 µg/mL)	≤ 1	> 100	> 100	10 to 100 (≈ 3.05 to 30.5 µg/mL)	> 100	1 to 10 (≈ 0.305 to 3.05 µg/mL)	10 to 100 (≈ 3.05 to 30.5 µg/mL)	1 to 10 (≈ 0.305 to 3.05 µg/mL)	1 to 10 (≈ 0.305 to 3.05 µg/mL)	1 to 10 (≈ 0.305 to 3.05 µg/mL)	10 to 100 (≈ 3.05 to 30.5 µg/mL)	10 to 100 (≈ 3.05 to 30.5 µg/mL)	1 to 10 (≈ 0.305 to 3.05 µg/mL)	–
Cc1cc(-c2[nH]c(N)nc2-c2ccc3c(c2)N(C(=O)CN)CCO3)ccn1 [Example 62, 2-Amino-1-(6-(2-amino-5-(2-methylpyridin-4-yl)-1H-imidazol-4-yl)-2,3-dihydro-4H-benzo[b][1,4]oxazin-4-yl)ethan-1-one]	≤ 1	> 100	1 to 10 (≈ 0.364 to 3.64 µg/mL)	≤ 1	> 100	> 100	1 to 10 (≈ 0.364 to 3.64 µg/mL)	> 100	1 to 10 (≈ 0.364 to 3.64 µg/mL)	1 to 10 (≈ 0.364 to 3.64 µg/mL)	1 to 10 (≈ 0.364 to 3.64 µg/mL)	1 to 10 (≈ 0.364 to 3.64 µg/mL)	1 to 10 (≈ 0.364 to 3.64 µg/mL)	10 to 100 (≈ 3.64 to 36.4 µg/mL)	1 to 10 (≈ 0.364 to 3.64 µg/mL)	1 to 10 (≈ 0.364 to 3.64 µg/mL)	–
COCCN1CCOc2ccc(-c3nc(N)[nH]c3-c3ccnc(C)c3)cc21 [Example 64, 4-(4-(2-Methoxyethyl)-3,4-dihydro-2H-benzo[b][1,4]oxazin-6-yl)-5-(2-methylpyridin-4-yl)-1H-imidazol-2-amine]	≤ 1	> 100	1 to 10 (≈ 0.365 to 3.65 µg/mL)	≤ 1	> 100	> 100	1 to 10 (≈ 0.365 to 3.65 µg/mL)	> 100	1 to 10 (≈ 0.365 to 3.65 µg/mL)	1 to 10 (≈ 0.365 to 3.65 µg/mL)	1 to 10 (≈ 0.365 to 3.65 µg/mL)	1 to 10 (≈ 0.365 to 3.65 µg/mL)	1 to 10 (≈ 0.365 to 3.65 µg/mL)	1 to 10 (≈ 0.365 to 3.65 µg/mL)	1 to 10 (≈ 0.365 to 3.65 µg/mL)	1 to 10 (≈ 0.365 to 3.65 µg/mL)	–
Cc1cc(-c2[nH]c(N)nc2-c2ccc3c(c2)N(C2CC2)CCO3)ccn1 [Example 65, 4-(4-Cyclopropyl-3,4-dihydro-2H-benzo[b][1,4]oxazin-6-yl)-5-(2-methylpyridin-4-yl)-1H-imidazol-2-amine]	1 to 10 (≈ 0.347 to 3.47 µg/mL)	> 100	≤ 1	≤ 1	> 100	> 100	1 to 10 (≈ 0.347 to 3.47 µg/mL)	> 100	≤ 1	1 to 10 (≈ 0.347 to 3.47 µg/mL)	≤ 1	≤ 1	≤ 1	1 to 10 (≈ 0.347 to 3.47 µg/mL)	1 to 10 (≈ 0.347 to 3.47 µg/mL)	≤ 1	–
Cc1cc(-c2[nH]c(N)nc2-c2ccc3c(c2)N(CC2CC2)CCO3)ccn1 [Example 92, 4-(4-(Cyclopropyl-methyl)-3,4-dihydro-2H-benzo[b][1,4]oxazin-6-yl)-5-(2-methylpyridin-4-yl)-1H-imidazol-2-amine]	1 to 10 (≈ 0.361 to 3.61 µg/mL)	> 100	≤ 1	≤ 1	> 100	> 100	1 to 10 (≈ 0.361 to 3.61 µg/mL)	25 to 100	1 to 10 (≈ 0.361 to 3.61 µg/mL)	1 to 10 (≈ 0.361 to 3.61 µg/mL)	1 to 10 (≈ 0.361 to 3.61 µg/mL)	≤ 1	1 to 10 (≈ 0.361 to 3.61 µg/mL)	1 to 10 (≈ 0.361 to 3.61 µg/mL)	1 to 10 (≈ 0.361 to 3.61 µg/mL)	≤ 1	–
Cc1cc(-c2[nH]c(N)nc2-c2ccc3c(c2)N(C(C)C)CCO3)ccn1 [Example 93, 4-(4-isopropyl-3,4-dihydro-2H-benzo[b][1,4]oxazin-6-yl)-5-(2-methylpyridin-4-yl)-1H-imidazol-2-amine]	≤ 1	> 100	≤ 1	≤ 1	> 100	> 100	1 to 10 (≈ 0.349 to 3.49 µg/mL)	25 to 100	≤ 1	1 to 10 (≈ 0.349 to 3.49 µg/mL)	≤ 1	≤ 1	1 to 10 (≈ 0.349 to 3.49 µg/mL)	1 to 10 (≈ 0.349 to 3.49 µg/mL)	1 to 10 (≈ 0.349 to 3.49 µg/mL)	≤ 1	–
NC[C@H]1O[C@H](O[C@H]2[C@H](O)[C@@H](O[C@H]3O[C@H](CO)[C@@H](O)[C@H](N)[C@H]3O)[C@H](N)C[C@@H]2N)[C@H](N)C[C@@H]1O [TOB]	–	–	–	–	–	–	–	–	–	–	–	–	–	–	–	–	MIC UPEC [1]: D (a MIC of over 100 is assigned the letter D); MIC AB [2]: B (a MIC of from 1 to 10 is assigned the letter B); MIC Ecl [3]: C (a MIC of from 10 to 100 is assigned the letter C); MIC EC [4]: B (a MIC of from 1 to 10 is assigned the letter B); MIC PA [6]: B (a MIC of from 1 to 10 is assigned the letter B); MIC St [7]: B (a MIC of from 1 to 10 is assigned the letter B); MIC Sm [8]: A (an MIC (μM) of less or equal to 1 is assigned the letter A); MIC SA [9]: B (a MIC of from 1 to 10 is assigned the letter B)
